According to patent US20260226065A1, “SUBSTITUTED BENZENE COMPOUND” (DAIICHI SANKYO COMPANY, LIMITED, priority 2023, published 2026):

Target: T1, NLRP3 inflammasome (Homo sapiens, UniProt Q96P20)
T1 construct: endogenous in cells; host or cells: THP-1 (human monocyte-derived), PMA-differentiated, Nigericin-stimulated
Experiment: In vitro IL-1β production test (PMA-differentiated THP-1 cells, Nigericin stimulation, AlphaLISA)
Assay type: cell-based
Settings: inhibition of IL-1β production; THP-1 cells differentiated with 200 nM PMA; 0.015 mM Nigericin; 2 hours
Experimental: Human monocyte-derived THP-1 cells were cultured for one day in 10% bovine serum-containing RPMI-1640 medium (Thermo #A10491-01) supplemented with 200 nM phorbol 12-myristate 13-acetate (PMA, Sigma #P8139) to induce differentiation.
NLRP3 inflammasome was induced by replacing the culture medium with bovine serum-free RPMI-1640 medium supplemented with 0.015 mM Nigericin (Sigma #SML1779) and the test compound of known concentrations.
After 2 hours, the culture medium supernatant was collected and the IL-1β protein concentration was measured using the AlphaLISA (registered trademark) assay (PerkinElmer #AL220C).
The IL-1β concentration without the addition of the test compound and with Nigericin stimulation was set as 0% inhibitory activity, and the IL-1β concentration without Nigericin stimulation was set as 100% inhibitory activity, and the inhibition rate (% inhibition) of the test compound at each added concentration was calculated.
The % inhibition value was subjected to sigmoid fitting using a logistic regression model to calculate the 50% inhibitory concentration (IC50 value).

T1 sequence (Q96P20 whole entry): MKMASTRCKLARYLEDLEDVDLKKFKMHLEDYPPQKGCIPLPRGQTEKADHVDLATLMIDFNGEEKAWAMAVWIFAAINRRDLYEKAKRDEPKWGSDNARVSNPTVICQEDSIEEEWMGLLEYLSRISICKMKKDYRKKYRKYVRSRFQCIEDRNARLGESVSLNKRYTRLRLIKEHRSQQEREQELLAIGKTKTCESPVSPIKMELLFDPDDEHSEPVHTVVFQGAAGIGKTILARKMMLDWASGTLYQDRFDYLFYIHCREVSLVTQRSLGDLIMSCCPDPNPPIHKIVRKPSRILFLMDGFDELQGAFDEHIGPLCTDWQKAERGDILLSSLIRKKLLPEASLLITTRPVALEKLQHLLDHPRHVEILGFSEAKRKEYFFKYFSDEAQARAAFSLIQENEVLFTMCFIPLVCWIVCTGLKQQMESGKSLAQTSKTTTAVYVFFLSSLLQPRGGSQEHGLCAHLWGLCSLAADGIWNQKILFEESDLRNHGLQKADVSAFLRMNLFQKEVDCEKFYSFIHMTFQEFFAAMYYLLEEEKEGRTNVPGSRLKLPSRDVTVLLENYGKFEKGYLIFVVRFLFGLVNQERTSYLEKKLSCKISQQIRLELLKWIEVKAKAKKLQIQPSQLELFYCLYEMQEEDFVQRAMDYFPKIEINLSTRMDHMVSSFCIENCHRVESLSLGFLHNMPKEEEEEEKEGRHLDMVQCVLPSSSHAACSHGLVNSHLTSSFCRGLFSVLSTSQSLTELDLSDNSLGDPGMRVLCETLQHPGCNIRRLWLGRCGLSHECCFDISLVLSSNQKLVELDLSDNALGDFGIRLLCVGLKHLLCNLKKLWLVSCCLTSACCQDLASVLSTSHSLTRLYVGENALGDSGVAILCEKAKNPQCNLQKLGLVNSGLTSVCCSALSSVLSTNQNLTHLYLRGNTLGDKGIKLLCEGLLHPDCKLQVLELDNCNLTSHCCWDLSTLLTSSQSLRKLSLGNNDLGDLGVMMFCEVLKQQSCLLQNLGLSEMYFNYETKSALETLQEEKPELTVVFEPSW

IC50 [nM]	Compound
4.86	Cc1cc(C(F)(F)F)cc(O)c1-c1cc2c(nn1)N([C@@H]1CCCN(C(C)C)C1)CC2 [Example 15, 3-methyl-2-{7-[(3R)-1-(propan-2-yl)piperidin-3-yl]-6,7-dihydro-5H-pyrrolo[2,3-c]pyridazin-3-yl}-5-(trifluoromethyl)phenol]
8.6	Cc1cc(C(F)(F)F)cc(O)c1-c1cc2c(C#N)cn(C34CCCC(O)(C3)C4)c2nn1 [Example 16, 7-(5-hydroxybicyclo[3.1.1]heptan-1-yl)-3-[2-hydroxy-6-methyl-4-(trifluoromethyl)phenyl]-7H-pyrrolo[2,3-c]pyridazine-5-carbonitrile]
6.65	Cc1cc(C(F)(F)F)cc(O)c1-c1cc2c(nn1)N([C@@H]1CCCN(C3CC3)C1)CC2 [Example 18, 2-{7-[(3R)-1-cyclopropylpiperidin-3-yl]-6,7-dihydro-5H-pyrrolo[2,3-c]pyridazin-3-yl}-3-methyl-5-(trifluoromethyl)phenol]
8.19	CCN1CCC[C@@H](n2cc(C)c3cc(-c4c(C)cc(C(F)(F)F)cc4O)nnc32)C1 [Example 20, 2-{7-[(3R)-1-ethylpiperidin-3-yl]-5-methyl-7H-pyrrolo[2,3-c]pyridazin-3-yl}-3-methyl-5-(trifluoromethyl)phenol]
10.5	CCN1CCC[C@@H](N2CCc3cc(-c4c(C)cc(OC(F)F)cc4O)nnc32)C1 [Example 22, 5-(difluoromethoxy)-2-{7-[(3R)-1-ethylpiperidin-3-yl]-6,7-dihydro-5H-pyrrolo[2,3-c]pyridazin-3-yl}-3-methylphenol]
11.8	CCN1CCC[C@@H](N2CCc3cc(-c4c(C)cc(OC(F)(F)F)cc4O)nnc32)C1 [Example 23, 2-{7-[(3R)-1-ethylpiperidin-3-yl]-6,7-dihydro-5H-pyrrolo[2,3-c]pyridazin-3-yl}-3-methyl-5-(trifluoromethoxy) phenol]
34.8	COc1cn(C23CCCC(O)(C2)C3)c2nnc(-c3c(C)cc(C(F)(F)F)cc3O)cc12 [Example 24, 5-{3-[2-hydroxy-6-methyl-4-(trifluoromethyl)phenyl]-5-methoxy-7H-pyrrolo[2,3-c]pyridazin-7-yl}bicyclo[3.1.1]heptan-1-ol]
6.18	CCN1CCC[C@@H](N2CCc3cc(-c4c(C)cc(Cl)cc4O)nnc32)C1 [Example 26, 5-chloro-2-{7-[(3R)-1-ethylpiperidin-3-yl]-6,7-dihydro-5H-pyrrolo[2,3-c]pyridazin-3-yl}-3-methylphenol]
12	COc1cn([C@H]2C[C@@](C)(O)C2)c2nnc(-c3c(C)cc(Cl)cc3O)cc12 [Example 28, 5-chloro-2-{7-[(1s,3s)-3-hydroxy-3-methylcyclobutyl]-5-methoxy-7H-pyrrolo[2,3-c]pyridazin-3-yl}-3-methylphenol]
12.4	Cc1cc(Cl)cc(O)c1-c1cc2c(OC(F)F)cn([C@H]3C[C@@](C)(O)C3)c2nn1 [Example 29, 5-chloro-2-{5-(difluoromethoxy)-7-[(1s,3s)-3-hydroxy-3-methylcyclobutyl]-7H-pyrrolo[2,3-c]pyridazin-3-yl}-3-methylphenol]
30.6	Cc1cc(C(F)(F)F)cc(O)c1-c1cc2ncn([C@@H]3CCCN(C)C3)c2nn1 [Example 32, 3-methyl-2-{7-[(3R)-1-methylpiperidin-3-yl]-7H-imidazo[4,5-c]pyridazin-3-yl}-5-(trifluoromethyl)phenol]
25.6	Cc1cc(C(F)(F)F)cc(O)c1-c1cc2c(nn1)N([C@@H]1CCCN(C)C1)CCN2C [Example 35, 3-methyl-2-{5-methyl-8-[(3R)-1-methylpiperidin-3-yl]-5,6,7,8-tetrahydropyrazino[2,3-c]pyridazin-3-yl}-5-(trifluoromethyl)phenol]
42.1	Cc1cc(C(F)(F)F)cc(O)c1-c1cc2c(nn1)N([C@@H]1CCCN(C)C1)CCC2 [Example 36, 3-methyl-2-{8-[(3R)-1-methylpiperidin-3-yl]-5,6,7,8-tetrahydropyrido[2,3-c]pyridazin-3-yl}-5-(trifluoromethyl)phenol]
